Laboratory results published in patent US7902341B2, “Methods and compositions for modulating somatolactogenic functions” (Trustees of the University of Pennsylvania, priority 1999, dated 2011).

Key:
PRL = biological target: T1, PRL (Homo sapiens, UniProt P01236); assay: Detection of PRL-CypB complexes by co-immunoprecipitation; assay type: binding; settings: for interaction with PRL (co-immunoprecipitation): purified epitope-tagged recombinant proteins admixed, reducing agent or divalent cation
T1 construct: Full length PRL cDNA was generated by PCR; made in house; host or cells: Drosophila S2 cells
T1 sequence (P01236 29-227): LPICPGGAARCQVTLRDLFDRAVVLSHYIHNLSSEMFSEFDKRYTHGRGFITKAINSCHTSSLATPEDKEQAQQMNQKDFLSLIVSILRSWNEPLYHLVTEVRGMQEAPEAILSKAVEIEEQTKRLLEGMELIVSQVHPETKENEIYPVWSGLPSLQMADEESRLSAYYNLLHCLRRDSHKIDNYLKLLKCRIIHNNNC
Procedure: Complexes were immunoprecipitated by the addition of 1 μg of polyclonal anti-histidine antibody (#sc-803, Santa Cruz Biotech) for one hour followed by roatation for one hour with 50 μl Protein-A beads. Precipiated complexes were separated by 15% SDS-PAGE and transferred to PVDF. Immunoblots were blocked for one hour at room temperature with 5% milk in PBS containing 1% TWEEN-20 (PBST) and immunoblotted with a monoclonal anti-myc antibody (1:1000, mAb 9E10) for one hour. Immunoblots were analyzed by incubation with an anti-mouse secondary antibody conjugated to horseradish peroxidase (1:2000, Boehringer Mannheim) for one hour followed by incubation with ECL Plus (Amersham Pharmacia Biotech) amnd exposure to Biomax film (Kodak).

Nb2 cells = assay: Nb2 cell proliferation (3H-thymidine) to assess CypB modulation of somatolactogenic action; assay type: cell-based, rat; settings: for enhancement of PRL-driven growth compared to cultures that received only PRL: Nb2 cells, added to PRL-containing medium, most prominent at 5-10 mM CypB and 50 pM PRL
Procedure: (§1) The effect of exogenous CypB on PRL-driven proliferation was examined with the rat Nb2 T-cell and the human T47D breast cancer line. […] This dose-dependent biphasic effect was most prominent at physiologic concentrations (5-10 mM) of CypB and PRL (50 pM) found in human serum. […] To determine the effect of CypB on cellular growth driven by the larger family of cytokines, to which PRL belongs, proliferation driven by interleukin-2 (IL-2), IL-3 and GH was examined.
Nb2-cells (5×10^4; PRL-dependent, rat T-lymphoma) were plated in each well of 96 well plates in a defined DMEM-serum free medium (0.1 mM 2-mercaptoethanol, 1% penicillin/streptomycin, and 1% ITS+(Calbiochem)). Cells were rested for 24 hours at 37° C. in this defined medium in the absence of PRL before the addition of 5-500 pM PRL (either as human pituitary isolated PRL, National Hormone and Pituitary Program, NIDDK; recombinant human PRL from E. coli, Genzyme; or recombinant human PRL from Drosophila S2 cells) alone or premixed with 1-2000 fold excess of purified CypB. Parallel studies were performed using human pituitary-derived GH (National Hormone and Pituitary Program, NIDDK). Cultures were incubated for 48 hours at 37° C. and proliferation was evaluated by the addition of 0.5 μCi of ^3H-thymidine for four hours followed by harvesting and scintillography. When stimulated with PRL alone, Nb2 cells yield sigmoid shaped growth curves that plateau at approximately 2 ng PRL/ml.

[1] = tested on: IL-2- and IL-3-driven proliferation; assay: IL-2- and IL-3-driven proliferation with added CypB; assay type: cell-based; settings: varying concentration of CypB
Procedure: as §1

[2] = tested on: T47D human breast cancer cells; assay: Nuclear retrotranslocation of PRL by indirect anti-PRL immunofluorescence; assay type: cell-based; settings: defined T47D culture medium containing the co-mitogen EGF
Procedure: Experiments were performed to examine the ability of CypB to enhance nuclear retrotranslocation of PRL, and thereby PRL-driven proliferation.
The role of this sequence in the CypB-mediated retrotranslocation of PRL, and its associated enhancement of growth was tested by mutagenic approaches. The putative nuclear localization sequence of CypB was deleted in the mutant CypB-NT.

Substance | interaction with PRL (co-immunoprecipitation) (PRL) | enhancement of PRL-driven growth compared to cultures that received only PRL (Nb2 cells) | interaction with PRL in human serum (co-immunoprecipitation; binding to sepharose-conjugated recombinant CypB) (PRL; human serum) | enhancement of PRL-induced proliferation (Nb2 cells; cell line not stated) | enhancement of GH-driven proliferation compared to GH alone (Nb2 cells; physiological concentrations of CypB, human pituitary-derived GH) | effect on IL-2-driven proliferation [1] | effect on IL-3-driven proliferation [1] | T47D nuclei exhibiting anti-PRL immunofluorescence [2]
CypA: recombinant form of the highly homologous cyclophilin family member [reference compound] | failed to interact with PRL | did not result in any potentiation | – | – | – | – | – | –
CypB: cyclophilin family cis-trans peptidyl prolyl isomerase; recombinant His-tagged wild-type protein (SEQ ID NO: 1) | direct interaction of CypB with PRL | eight-fold | direct co-immunoprecipitation of PRL with CypB from human serum | failed to enhance PRL-induced proliferation | forty-fold | Neither IL-2- nor IL-3-driven proliferation was altered | Neither IL-2- nor IL-3-driven proliferation was altered | 95-100%
